Data from patent US12023335B2, “Method for treating pancreatic cancer” (PTC THERAPEUTICS, INC., priority 2018, dated 2024).

Tests used:
P-glycoprotein = biological target: T1, P-glycoprotein (Homo sapiens, UniProt P08183); test: P-glycoprotein substrate activity experiment (CC50 ratio MDCK-P-gp vs MDCK-WT); format: in vitro ADME; conditions: 72 hours, CellTiter-Glo (FIG. 4b)
T1 construct: host or cells: MDCKII-mdr1 (canine kidney MDCKII cells; MDCKII-wt as control)
Method: MDCKII-mdr1 and MDCKII-wt cells were purchased from the Netherlands Cancer Institute, NKI-AVL. The cells were cultivated in Dulbecco's modified essential medium (DMEM), supplemented with 10% FBS and 1% Penn-Strep, and used between passage 3-9. Cells were seeded at a density of 3×10^3 cells/well in 96-well tissue culture treated plates. After 4 hours to allow cells to attach, cells were treated with test compound in the presence or absence of the P-glycoprotein inhibitor Valspodar. The plates were incubated at 37° C., 5% CO2 for 72 hours and ATP was measured vialuminescence using CellTiter-Glo® reagent (Promega). (FIG. 4b)

advanced PDA = conditions: cited from earlier work
PDA tumors in KPC mice = test: KPC intervention/survival study; format: in vivo; conditions: KPC mice (FIGS. 9a, 9b)
Method: Tumor formation in KPC mice was monitored by weekly palpation until the detection of a mass. Upon positive palpation, the mass was monitored by twice weekly ultrasound until the tumor reached an enrollable size of 4-7 mm average diameter. Once enrollable, KPC mice were randomly enrolled into a treatment arm of the intervention study. Mice were treated with vehicle, Compound 1 (17 mg/kg, PO, b.i.w.), gemcitabine alone (100 mg/kg, IP, b.i.w.), or Compound 1+gemcitabine. Mice receiving Compound 1 also received gemcitabine vehicle (saline, IP, b.i.w.) at a volume (μL) of 50× body weight (g). Mice receiving gemcitabine also received Compound 1 vehicle (0.5% hydroxypropylmethylcellulose with 0.1% Tween80 (w/v), PO, b.i.w.) at a volume (μL) of 5.7× body weight (g). All drug and vehicle combinations were administered simultaneously.
Tumor ultrasonography and volume quantification were carried out as described in Sastra S A, Olive K P, Quantification of murine pancreatic tumors by high-resolution ultrasound, Methods Mol Biol 2013; 980:249-66. […]
To prepare samples for immunohistochemistry, tissues were first fixed overnight in 10% phosphate-buffered formalin and then stored in 70% ethanol for long-term storage. […] Next, antigen retrieval was carried out in an experimentally determined, antibody-specific antigen retrieval buffer (usually 10 mM citrate, pH 6.0 or 10 mM Tris, pH 10.0). […]

T1 sequence (P08183 whole entry): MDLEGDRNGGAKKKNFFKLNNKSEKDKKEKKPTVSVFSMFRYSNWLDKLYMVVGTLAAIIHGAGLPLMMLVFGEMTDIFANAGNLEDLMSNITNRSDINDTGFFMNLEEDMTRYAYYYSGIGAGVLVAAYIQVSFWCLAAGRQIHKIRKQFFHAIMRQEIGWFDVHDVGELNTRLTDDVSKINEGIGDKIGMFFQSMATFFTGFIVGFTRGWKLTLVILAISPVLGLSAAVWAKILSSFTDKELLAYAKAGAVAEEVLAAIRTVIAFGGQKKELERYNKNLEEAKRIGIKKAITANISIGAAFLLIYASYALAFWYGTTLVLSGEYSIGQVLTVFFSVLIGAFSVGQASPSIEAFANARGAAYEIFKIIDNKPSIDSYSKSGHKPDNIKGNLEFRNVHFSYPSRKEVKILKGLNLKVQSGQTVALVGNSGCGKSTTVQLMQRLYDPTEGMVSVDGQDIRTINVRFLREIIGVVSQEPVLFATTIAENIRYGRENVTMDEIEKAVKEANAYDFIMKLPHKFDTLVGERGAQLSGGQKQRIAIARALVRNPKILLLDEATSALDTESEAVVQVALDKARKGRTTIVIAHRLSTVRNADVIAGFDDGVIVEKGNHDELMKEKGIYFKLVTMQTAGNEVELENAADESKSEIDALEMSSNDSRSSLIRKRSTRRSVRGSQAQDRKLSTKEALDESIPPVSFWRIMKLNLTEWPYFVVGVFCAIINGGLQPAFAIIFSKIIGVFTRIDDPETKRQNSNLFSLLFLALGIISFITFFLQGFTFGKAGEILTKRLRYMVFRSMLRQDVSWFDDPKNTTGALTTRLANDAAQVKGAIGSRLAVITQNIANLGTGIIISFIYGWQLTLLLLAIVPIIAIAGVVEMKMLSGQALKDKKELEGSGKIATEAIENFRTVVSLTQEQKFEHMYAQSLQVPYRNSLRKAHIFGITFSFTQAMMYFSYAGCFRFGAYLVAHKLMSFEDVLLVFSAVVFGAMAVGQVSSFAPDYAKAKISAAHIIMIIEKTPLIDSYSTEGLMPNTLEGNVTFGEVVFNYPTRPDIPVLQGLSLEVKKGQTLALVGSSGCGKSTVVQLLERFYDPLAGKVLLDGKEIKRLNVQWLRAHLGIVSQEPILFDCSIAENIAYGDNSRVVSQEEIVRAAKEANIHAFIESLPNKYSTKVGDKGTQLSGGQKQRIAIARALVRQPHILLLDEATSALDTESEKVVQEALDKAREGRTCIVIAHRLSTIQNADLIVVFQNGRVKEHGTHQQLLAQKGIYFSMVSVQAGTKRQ

Cc1nc2cc(F)c(F)cc2n1-c1cncc(Nc2ccc(C(F)(F)F)cc2)n1 [Compound 2, 6-(5,6-difluoro-2-methyl-1H-benzo[d]imidazol-1-yl)-N-(4-(trifluoromethyl)phenyl)pyrazin-2-amine, reference compound]
PGP substrate activity (ratio of CC50 values MDCK-P-gp vs MDCK-WT) (P-glycoprotein): do not function as a PGP substrate

C#Cc1cccc(Nc2ncnc3cc(OCCOC)c(OCCOC)cc23)c1 [Tarceva, erlotinib]
additional survival benefit, average (advanced PDA; when combined with gemcitabine): 10 days

CN(C)CCCN1c2ccccc2Sc2ccc(Cl)cc21 [chlorpromazine, reference compound]
PGP substrate activity (ratio of CC50 values MDCK-P-gp vs MDCK-WT) (P-glycoprotein): do not function as a PGP substrate

Nc1ccn([C@@H]2O[C@H](CO)[C@@H](O)C2(F)F)c(=O)n1 [gemcitabine, reference compound]
extension of survival (advanced PDA; national standard-of-care therapy): modestly extends survival by a few weeks | apoptotic cell population in stained tumor sections (PDA tumors in KPC mice): induced apoptotic cell population
